Measured values taken from patent US20050090522A1 (priority 2001, published 2005).
Like-named read-outs stand apart in the source and are kept apart here.

Legend:
HIV-1 = HIV-1 single-round infectious luciferase reporter virus (pseudotype) assay in HeLa CD4 CCR5 cells; assay type: cell-based
Outline: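 HeLa CD4 CCR5 cells (5×10^4/well, DMEM + 10% FBS) were treated with compound (final <10 μM) and infected with single-round luciferase reporter virus made in 293 cells, at MOI ~0.01. Luciferase was read 72 h post infection. EC50 came from 10-concentration percent-inhibition curves fitted to a four-parameter logistic model.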

[1] = Metabolic stability in pooled human liver microsomes (HLM); settings: 3 μM drug
Experimental: Metabolic Stability Studies of compounds in Liver Microsomes. The metabolic stability of compounds were investigated in pooled liver microsomes from humans. The human liver microsomes were obtained from BD Gentest (Lot #16, Woburn, Mass.) with a protein concentration of 20 mg/ml and a total cytochrome P450 (CYP) concentration of 0.55 nmol/mg protein. A stock solution of drug was prepared in acetonitrile at 1 mM. […] The incubation media consisted of potassium phosphate buffer (0.1 M, pH 7.4), liver microsomes (final concentration 0.9 mg/ml), magnesium chloride (0.033 mM), and a NADPH-regenerating system. […] The test compound was pre-incubated in the media for 2 min. The reaction was initiated by the addition of the cofactors. The incubation was carried out at 37° C. for 10 min. The reaction was terminated by drawing an aliquot of 100 μL from the incubation and adding into 200 μL of acetonitrile containing a reference compound as an […] analytical standard. Following vortex-mixing and centrifugation, an aliquot of 10 μL of the supernatant was analyzed by LC/MS.
GUIDELINES can be used to categorized test substances as low, intermediate or highly cleared compounds.
(§1) For accuracy, the determined measure of viral inhibition is an EC50; but the minimum plasma concentrations which should be maintained in a patient is generally believed to be at least four or five fold higher. […] Lower is better. • 4) Estimating potential exposure in man by measuring parameters such as AUC and rate of clearance by oral and iv dosing in rats. High exposure and low clearance was desired.
The stability of compounds were also evaluated to determine metabolic stability when incubated in in vitro preparations of human liver microsomes (HLM). This is one commonly used predictive system for evaluating the potential for human metabolism and projecting clearance rates in man. Compounds with low clearance rates were most desireable.

HeLa cells = assay: Cytotoxicity assay in HeLa cells (MTT dye reduction, CC50)
Experimental: • Virus production—Human embryonic Kidney cell line, 293, propagated in Dulbecco's Modified Eagle Medium (Life Technologies, Gaithersburg, Md.) containing 10% fetal Bovine serum (FBS, Sigma, St. Louis, Mo.). • Virus infection—Human epithelial cell line, HeLa, expressing the HIV-1 receptors CD4 and CCR^5 was propagated in Dulbecco's Modified Eagle Medium (Life Technologies, Gaithersburg, Md.) containing 10% fetal Bovine serum (FBS, Sigma, St. Louis, Mo.) and supplemented with 0.2 mg/mL Geneticin (Life Technologies, Gaithersburg, Md.) and 0.4 mg/mL Zeocin (Invitrogen, Carlsbad, Calif.). […] Transfections were performed using lipofectAMINE PLUS reagent as described by the manufacturer (Life Technologies, Gaithersburg, Md.). Experiment • 1. Compound was added to HeLa CD4 CCR5 cells plated in 96 well plates at a cell density of 5×10^4 cells per well in 100 μl Dulbecco's Modified Eagle Medium containing 10% fetal Bovine serum at a concentration of […]. • 2. 100 μl of single-round infectious reporter virus in Dulbecco's Modified Eagle Medium was then added to the plated cells and compound at an approximate multiplicity of infection (MOI) of 0.01, resulting in a final volume of 200 μl per well and a final compound concentration of <10 μM. • 3. Samples were harvested 72 h after infection. • 4. Viral infection was monitored by measuring luciferase expression from viral DNA in the infected cells using a luciferase reporter gene assay kit (Roche Molecular Biochemicals, Indianapolis, Ind.). Infected cell supernatants were removed and 50 μl of Dulbecco's Modified Eagle Medium (without phenol red) and 50 μl of luciferase assay reagent reconstituted as described by the manufacturer (Roche Molecular Biochemicals, Indianapolis, Ind.) was added per well. Luciferase activity was then quantified by measuring luminescence using a Wallac microbeta scintillation counter. • 5. […] An EC50 provides a method for comparing the antiviral potency of the compounds of this invention. The effective concentration for fifty percent inhibition (EC50) was calculated with the Microsoft Excel Xlfit curve fitting software. For each compound, curves were generated from percent inhibition calculated at 10 different concentrations by using a four paramenter logistic model (model 205). Table 1 is the key for the data in Tables 2-4. Cytoxicity assays were conducted with the same HeLa using methodology well known in the art.
as §1

[2] = Human immunodeficiency virus 1, HeLa-CD4/CCR5, read-out: EC50 Group from TABLE 1, HeLa CD4 CCR5 cells, single-round infectious luciferase reporter virus
[3] = Human immunodeficiency virus 1, HeLa-CD4/CCR5, read-out: EC50 category, HIV-1 single-round reporter virus assay, category 1/2/3 per Table A1 key
[4] = pooled human liver microsomes, Low/Intermediate/High
[5] = cytotoxicity, Yes = CC50 above 100 uM, No = not
[6] = Human immunodeficiency virus 1, HeLa-CD4/CCR5, read-out: EC50 Group from Table 1, Table 2-1, HeLa CD4 CCR5 cells, single-round luciferase reporter virus
[7] = Human immunodeficiency virus 1, HeLa-CD4/CCR5, read-out: EC50 Group from Table 1, Table 4, HeLa CD4 CCR5 cells, single-round luciferase reporter virus

With `Cn1ccc(-c2ncc(F)c3c(C(=O)C(=O)N4CCN(C(=O)c5ccccc5)CC4)c[nH]c23)n1` [Example 29, 1-benzoyl-4-[(4-fluoro-7-(1-methyl-pyrazol-3-yl)-6-azaindol-3-yl)-oxoacetyl]piperazine] the EC50 (HIV-1; [2]) was < 1000 nM, the EC50 (HIV-1; [3]) was 0.2 to 1000 nM and the “HLM predicted human clearance class” value [1, 4] was “High (0.201-0.300)”. For the same molecule, the “CC50 > 100 uM” value (HeLa cells; [5]) was “No”.

In the case of `COc1cnc(-n2ccc(N)n2)c2[nH]cc(C(=O)C(=O)N3CCN(C(=O)c4ccccc4)CC3)c12` [Example 251, 1-benzoyl-4-[(4-methoxy-7-(3-amino-pyrazol-1-yl)-6-azaindol-3-yl)-oxoacetyl]piperazine], the EC50 (HIV-1; [2]) is reported as < 1000 nM, the EC50 (HIV-1; [3]) is reported as < 0.2 nM and the “HLM predicted human clearance class” value [1, 4] is reported as “Low (0-0.100)”. The “CC50 > 100 uM” value (HeLa cells; [5]) was “Yes”.

For `CNC(=O)c1ncn(-c2ncc(OC)c3c(C(=O)C(=O)N4CCN(C(=O)c5ccccc5)CC4)c[nH]c23)n1` [Example 274, 1-benzoyl-4-[(4-rnethoxy-7-(3-methylaminocarbonyl-1,2,4-triazol-1-yl)-6-azaindol-3-yl)-oxoacetyl]piperazine], the EC50 (HIV-1; [2]) was < 1000 nM, the EC50 (HIV-1; [3]) was < 0.2 nM and the “HLM predicted human clearance class” value [1, 4] was “Low (0-0.100)”. The “CC50 > 100 uM” value (HeLa cells; [5]) was “Yes”.

With `COCc1ncn(-c2ncc(OC)c3c(C(=O)C(=O)N4CCN(C(=O)c5ccccc5)[C@H](C)C4)c[nH]c23)n1` [Example 324] the EC50 (HIV-1; [6]) was < 1000 nM, the EC50 (HIV-1; [3]) was < 0.2 nM and the “HLM predicted human clearance class” value [1, 4] was “Low (0-0.100)”. For the same molecule, the “CC50 > 100 uM” value (HeLa cells; [5]) was “Yes”.

With `COc1cnc(-c2cncs2)c2[nH]cc(C(=O)C(=O)N3CCN(C(=O)c4ccccc4)CC3)c12` [Example 71, 1-benzoyl-4-[(4-methoxy-7-(thioazol-5-yl)-6-azaindol-3-yl)-oxoacetyl]piperazine] the EC50 (HIV-1; [2]) was < 1000 nM, the EC50 (HIV-1; [3]) was < 0.2 nM and the “HLM predicted human clearance class” value [1, 4] was “Intermediate (0.101-0.200)”. The “CC50 > 100 uM” value (HeLa cells; [5]) was “Yes”.

With `O=C(C(=O)N1CCN(C(=O)c2ccccc2)CC1)c1c[nH]c2c(-c3cn(-c4ccccc4)nn3)ccnc12` [Example 161] the EC50 (HIV-1; [7]) was < 1000 nM, the EC50 (HIV-1; [3]) was < 0.2 nM and the “HLM predicted human clearance class” value [1, 4] was “High (0.201-0.300)”. For the same molecule, the “CC50 > 100 uM” value (HeLa cells; [5]) was “Yes”.

With `COc1cnc(-n2ncc(C)n2)c2[nH]cc(C(=O)C(=O)N3CCN(C(=O)c4ccccc4)CC3)c12` [Example 327] the EC50 (HIV-1; [2]) was < 1000 nM, the EC50 (HIV-1; Human immunodeficiency virus 1, HeLa-CD4/CCR5, read-out: EC50 category, initial pseudotype assay, key in Table A1) was 0.2 to 1000 nM and the “HLM predicted human clearance class” value ([1]; 0.9 mg/ml microsomes, 37° C., 10 min) was “Low (0-0.100)”. For the same molecule, the “CC50 > 100 uM” value (HeLa cells; HeLa cells, six days with drug, MTT) was “Yes”.

For `O=C(C(=O)N1CCN(C(=O)c2ccccc2)CC1)c1c[nH]c2c(N3CCOCC3)ncc(F)c12` [Example 222], the EC50 (HIV-1; [2]) was < 1000 nM, the EC50 (HIV-1; [3]) was 0.2 to 1000 nM and the “HLM predicted human clearance class” value [1, 4] was “Low (0-0.100)”. For the same molecule, the “CC50 > 100 uM” value (HeLa cells; [5]) was “Yes”.

In the case of `Cc1noc(-c2ncc(F)c3c(C(=O)C(=O)N4CCN(C(=O)c5ccccc5)CC4)c[nH]c23)n1` [Example 300], the EC50 (HIV-1; [2]) is reported as < 1000 nM, the EC50 (HIV-1; [3]) is reported as 0.2 to 1000 nM and the “HLM predicted human clearance class” value [1, 4] is reported as “Low (0-0.100)”. The “CC50 > 100 uM” value (HeLa cells; [5]) was “Yes”.

In the case of `COc1cnc(-n2ccnn2)c2[nH]cc(C(=O)C(=O)N3CCN(C(=O)c4ccccc4)[C@H](C)C3)c12` [Example 255, (R)-1-benzoyl-2-methyl-4-[(4-methoxy-7-(1,2,3-triazol-1-yl)-6-azaindol-3-yl)-oxoacetyl]piperazine], the EC50 (HIV-1; [6]) is reported as < 1000 nM, the EC50 (HIV-1; [3]) is reported as < 0.2 nM and the “HLM predicted human clearance class” value [1, 4] is reported as “Intermediate (0.101-0.200)”. For the same molecule, the “CC50 > 100 uM” value (HeLa cells; [5]) was “Yes”.

For `C[C@@H]1CN(C(=O)c2ccccc2)CCN1C(=O)C(=O)c1c[nH]c2c(-n3cccn3)ncc(Br)c12` [Example 139], the EC50 (HIV-1; [2]) was < 1000 nM, the EC50 (HIV-1; [3]) was 0.2 to 1000 nM and the “HLM predicted human clearance class” value [1, 4] was “High (0.201-0.300)”. For the same molecule, the “CC50 > 100 uM” value (HeLa cells; [5]) was “Yes”.

In the case of `COc1cnc(-n2cnc(N)n2)c2[nH]cc(C(=O)C(=O)N3CCN(C(=O)c4ccccc4)[C@H](C)C3)c12` [Example 258, (R)-1-benzoyl-2-methyl-4-[(4-methoxy-7-(3-amino-1,2,4-triazol-1-yl)-6-azaindol-3-yl)-oxoacetyl]piperazine], the EC50 (HIV-1; [6]) is reported as < 1000 nM, the EC50 (HIV-1; [3]) is reported as < 0.2 nM and the “HLM predicted human clearance class” value [1, 4] is reported as “Low (0-0.100)”. For the same molecule, the “CC50 > 100 uM” value (HeLa cells; [5]) was “Yes”.

With `COc1cnc(-n2cnc(C)c2)c2[nH]cc(C(=O)C(=O)N3CCN(C(=O)c4ccccc4)CC3)c12` [Example 318] the EC50 (HIV-1; [2]) was < 1000 nM, the EC50 (HIV-1; [3]) was 0.2 to 1000 nM and the “HLM predicted human clearance class” value [1, 4] was “Low (0-0.100)”. The “CC50 > 100 uM” value (HeLa cells; [5]) was “Yes”.

With `COc1cnc(-c2ncco2)c2[nH]cc(C(=O)C(=O)N3CCN(C(=O)c4ccccc4)CC3)c12` [Example 74, 1-benzoyl-4-[(4-methoxy-7-(oxazol-2-yl)-6-azaindol-3-yl)-oxoacetyl]piperazine] the EC50 (HIV-1; [2]) was < 1000 nM, the EC50 (HIV-1; [3]) was 0.2 to 1000 nM and the “HLM predicted human clearance class” value [1, 4] was “Intermediate (0.101-0.200)”. The “CC50 > 100 uM” value (HeLa cells; [5]) was “No”.

With `O=C(C(=O)N1CCN(C(=O)c2ccccc2)CC1)c1c[nH]c2c(-n3cncn3)ccnc12` [Example 207, 1-(4-benzoyl-piperazin-1-yl)-2-(7-[1,2,4]triazol-1-yl-1H-pyrrolo[3,2-b]pyridin-3-yl)-ethane-1,2-dione] the EC50 (HIV-1; [7]) was < 1000 nM, the EC50 (HIV-1; [3]) was 0.2 to 1000 nM and the “HLM predicted human clearance class” value [1, 4] was “Low (0-0.100)”. The “CC50 > 100 uM” value (HeLa cells; [5]) was “Yes”.

With `Nc1ncn(-c2ncc(F)c3c(C(=O)C(=O)N4CCN(C(=O)c5ccccc5)CC4)c[nH]c23)n1` [Example 313] the EC50 (HIV-1; [2]) was < 1000 nM, the EC50 (HIV-1; [3]) was < 0.2 nM and the “HLM predicted human clearance class” value [1, 4] was “Low (0-0.100)”. The “CC50 > 100 uM” value (HeLa cells; [5]) was “Yes”.
